Test results as given in US20130090303A1, “Agonists of PY2Y Receptor as a Treatment for Aortic Stenosis and Cardiovascular Calcification” (UNIVERSITE LAVAL, priority 2011, published 2013).

Tests used:
[1] = tested on: valve interstitial cells (VICs); assay: In vitro calcification of isolated valve interstitial cells (calcium by Arsenazo III method); format: cell-based; conditions: isolated human VICs, pro-calcifying medium 7 days; FIG. 2A/2B
Method: In isolated cells, calcium was measured by the Arsenazo III method (Côte N, et al. J Mol Cell Cardiol 2012;52:1191-202) and results reported as percent changes.
(§1) Human valve interstitial cells (VICs) were isolated by collagenase digestion. To provoke calcification, cells were incubated for 7 days with a pro-calcifying medium containing: DMEM+5% FBS, 10^−7 M insulin, 50 μg /ml ascorbic acid and NaH2PO4 at 2 mM.

Runx2, osteocalcin = assay: Real-time PCR expression of Runx2 and osteocalcin in isolated VICs; format: cell-based, Human; conditions: q-PCR normalized to HPRT, FIG. 2C
Method: RNA was also extracted from AS valves and cells during in vitro experiments. Total RNA was isolated with RNeasy micro kit from Qiagen (Qiagen, Mississauga, Ont, Canada). The RNA extraction protocol was performed according to manufacturer's instructions using 100 mg of tissue. The quality of total RNA was monitored by capillary electrophoresis (Experion, Biorad, Mississauga, Ont, Canada). Four (4) μg of RNA was reverse transcribed using the Quantitec Reverse Transcription Kit from Qiagen. Quantitative real-time PCR (q-PCR) was performed with Quantitec SYBR Green PCR kit from Qiagen in the Rotor-Gene 6000 system (Corbett Robotics Inc, San Francisco, Calif., USA). The following primers were obtained from (Invitrogen, Burlington, Ont, Canada): P2Y2, Runx2, osteocalcin. The expression of hypoxanthine-guanine phosphoribosyltransferase (HPRT) (Invitrogen, Burlington, On, Canada) as a reference gene was chosen to normalize the results.
as §1

| SMILES | calcification of isolated VICs [1] | expression of osteocalcin (Runx2, osteocalcin) | expression of the bone transcription factor, Runx2 (Runx2, osteocalcin) |
| --- | --- | --- | --- |
| Cc1ccc(C(=O)Nc2ccc(S(=O)(=O)O)c3cc(S(=O)(=O)O)cc(S(=O)(=O)O)c23)cc1NC(=O)c1cccc(NC(=O)Nc2cccc(C(=O)Nc3cc(C(=O)Nc4ccc(S(=O)(=O)O)c5cc(S(=O)(=O)O)cc(S(=O)(=O)O)c45)ccc3C)c2)c1 [suramin] | increased calcification |  |  |
| O=c1ccn([C@@H]2O[C@H](COP(=O)(O)OP(=O)(O)OP(=O)(O)O)[C@@H](O)[C@H]2O)c(=S)[nH]1 [2-thioUTP] | reduced significantly calcification | decreased the expression | decreased the expression |
